The source of these data is article PMC10257519 (European journal of medicinal chemistry, 2022).

Read-outs that look alike come from different tables or passages of the source.

In series [1] the test system is human retinal pigment epithelial RPE cells. The series is described as follows: Cell viability assay on normal cells. The note with it: at a maximum concentration of 30 μM.
For another series, the system named is NCI 60 cell lines. Nature of the series: NCI 60 cell five-dose assay. It is filed as cell-based. The following applies: read-out: TGI (μM).
Series [2] is described as follows: S9 fraction metabolic stability assay. The class given is in vitro ADME, human. The following applies: 0.02 mM substrate, NADPH, 37 °C, monitored over 2 h.
In series [3] the test system is HCT116 human colon cancer cells. Nature of the series: Cell growth inhibition / viability assay.
Series [4] deals with PARP1 cleavage in HCT116 cells. The series is described as follows: Western blot analysis of PARP1 cleavage. The following applies: HCT116 cells treated for 24 h. The class given is cell-based, human.
The subject of series [5] is acetyl–H3 and pan acetyl–lysine. The series is described as follows: Hyperacetylation assay by Western blot. It is filed as cell-based, human. The following applies: 5 and 10 μM.
The conditions of series [6]: reported earlier; cited from earlier work.
Setting [7] is: Homo sapiens, HCT-116, read-out: IC50 ± SD (μM) (n = 3) on HCT116 cell line.

As for `COc1ccc(NC(=O)CCCCCCNC(=O)C(O)(O)C(F)(F)F)cc1` [Compound 55, N-(4-methoxyphenyl)-7-(3,3,3-trifluoro-2,2-dihydroxypropanamido)heptanamide], the “cell survival, RPE” value in series [1] is “more than 50%”.
On to `O=C(CCCCCCNC(=O)C(O)(O)C(F)(F)F)Nc1ncc(-c2ccccc2)s1` [Compound 58, N-(5-phenylthiazol-2-yl)-7-(3,3,3-trifluoro-2,2-dihydroxypropanamido)heptanamide], for which the IC (TGI) in the series on NCI 60 cell lines was 17 µM.
Regarding `O=C(CCCCCCNC(=O)C(O)(O)C(F)(F)F)Nc1nccs1` [Compound 60, N-(thiazol-2-yl)-7-(3,3,3-trifluoro-2,2-dihydroxypropanamido) heptanamide], the “disappearance of the M+1 peak in S9 fraction” value in series [2] was “did not disappear over 2 h”.
As to `COc1cc(NC(=O)CCCCCCNC(=O)C(O)(O)C(F)(F)F)cc(OC)c1OC` [Compound 71, 7-(3,3,3-trifluoro-2,2-dihydroxypropanamido)-N-(3,4,5-trimethoxyphenyl)heptanamide], the IC50 in series [3] (setting [7]) was determined as 3.45 ± 0.36 µM.
For the compound `O=C(CCCCCCNC(=O)C(O)(O)C(F)(F)F)Nc1nc2ccc(Br)cc2o1` [Compound 80, N-(6-bromobenzo[d]oxazol-2-yl)-7-(3,3,3-trifluoro-2,2-dihydroxypropanamido)heptanamide], in series [3] (setting [7]), the IC50 is 7.56 ± 0.73 µM.
With `COc1ccc2sc(NC(=O)CCCCCCNC(=O)C(O)(O)C(F)(F)F)nc2c1` [Compound 83, N-(5-methoxybenzo[d]thiazol-2-yl)-7-(3,3,3-trifluoro-2,2-dihydroxypropanamido)heptanamide], in series [4], the “cleaved PARP1 (Western blot)” value is recorded as “Dose-dependent elevation”.
As to `COc1ccc(-c2cnc(NC(=O)CCCCCCNC(=O)C(O)(O)C(F)(F)F)s2)cc1` [Compound 84, N-(5-(4-methoxyphenyl)thiazol-2-yl)-7-(3,3,3-trifluoro-2,2-dihydroxypropanamido)heptanamide], in series [5], the “levels of acetylated H3 (Western blot)” value is “increased levels” and the “levels of pan-acetyl-lysine (Western blot)” value was “increased levels”. Also, in series [4], the “cleaved PARP1 (Western blot)” value is listed as “Absence of PARP1 cleavage”.
Consider `O=C(CCCCCCNC(=O)C(O)(O)C(F)(F)F)Nc1ncc(-c2ccc(Br)cc2)s1` [Compound 85, N-(5-(4-bromophenyl)thiazol-2-yl)-7-(3,3,3-trifluoro-2,2-dihydroxypropanamido)heptanamide], for which the “cleaved PARP1 (Western blot)” value in series [4] is on record as “Dose-dependent elevation”.
On to `OC(O)(c1c(F)c(F)c(-n2cc(-c3ccccc3)nn2)c(F)c1F)C(F)(F)F` [Compound 89], for which the “HCT116 IC50” value in series [3] (zinc-binding group screening, maximum concentration of 100 μM) was “inactive”.
As to `O=C(CCCCCCC(=O)C(F)(F)F)Nc1ccccc1` [Compound 91], in series [6], the half-life result is reported as “less than 30 min”.
As to “N-phenyl-6-(3,3,3-trifluoro-2,2-dihydroxypropanamido)hexanamide [Compound 10b]”, the IC50 in series [3] (read-out: IC50 (μM) HCT116, effect of linker length, linker length n = 3–7) is 54.4 ± 6.02 µM.
